In patent EP0563732A1, “7-oxo-7H-pyrido(1,2,3-de)(1,4)benzoxazinecarboxylic acids and esters and their use as antiviral agents” (BAYER AG, priority 1992, dated 1993):
Structures can show the parent of a compound that is named as a salt.

Each molecule was assayed on Hepatitis B Virus (assay: HBV test system: HBV-DNA in the supernatant of transfected hepatoma cells (PEG precipitation, non-radioactive HBV DNA probe)). Settings: HepG2.2.15, 50% inhibition of HBV-DNA concentration in supernatant, HEP G2.2.15 cells, read-out: IC₅₀.
Assay type: cell-based
From the text: Der Nachweis wurde in mit Hepatitis B Virus DNA transfizierten Hepatomzellen (HEP G2.2.15) geführt. Die Ergebnisse der unten aufgeführten Beispiele wurden zu dem in der folgenden Literaturangabe [Sells, M.A.; Chen, M.L., Acs, G., Proc. Natl. Acad. Sci. USA S. 1005 - 1009, Vol. 84 (1987] beschriebenen HBV-Testsystem ermittelt:
Transfizierte Hepatomzellen (HEP G2.2.15) wurden mit verschiedenen Konzentrationen an der jeweiligen Verbindung inkubiert. Durch Behandlung der transfizierten Hepatomzellinie HEP G2.2.15 mit den erfindungsgemäßen Verbindungen konnte das […] der virusspezifischen HBV-DNA im Überstand sowie eine Reduktion des HBsAg Spiegels gezeigt werden. Es wurde weiter gefunden, daß die erfindungsgemäßen Verbindungen zu einer Reduktion der replikativen Intermediate der Hepatitisviren führen. Im Überstand der Zellkulturen wurde nach PEG Fällung der Gehalt an HBV-DNA bestimmt. Dies geschah unter Verwendung einer nicht radioaktiv markierten HBV genomischen DNA Probe [Pauly, P., 1982, Ph.D. Thesis, University of Göttingen, F.R.G.; Köchel et al., 1990, EMBL, Accession-Nr. X 51790]. Gleichzeitig erfolgte der Nachweis der Beeinflussung der HBsAg Bildung mittels eines kommerziell erhältlichen Elisa Tests. Die angegebenen IC₅₀-Werte beziehen sich auf die Substratkonzentrationen, die unter den oben aufgeführten Testbedingungen eine 50%ige Hemmung der HBV-DNA Konzentration im Überstand bewirken. Tabelle A
Gleichzeitig erfolgte die Bestimmung des möglicherweise vorhandenen cytotoxischen Einflusses der erfindungsgemäßen Verbindungen mittels Kristallviolettfärbung bzw. über den Einbau von radioaktiv markiertem Thymidin in die zelluläre DNA.

In order of falling IC50:
1. CC1=COc2c(N3CCOCC3)c(F)cc3c(=O)c(C(=O)O)cn1c23 [Beispiel 16]  5000 nM
2. CCOC(=O)c1cn2c3c(c(N4CCC(N)C4)c(F)cc3c1=O)OC(c1ccc(OC)cc1)=C2 (centres unmarked) [Beispiel 38, 10-(3-Amino-1-pyrrolidinyl)-9-fluor-2-(4-methoxyphenyl)-7-oxo-7H-pyrido[1,2,3-de][1,4]benzoxacin-6-carbonsäureethylester-hydrochlorid]  5000 nM
3. COC(=O)c1cn2c3c(c(N4CCNCC4)c(F)cc3c1=O)OC=C2C [Beispiel 33]  500 nM
4. CN1CCN(c2c(F)cc3c(=O)c(C(=O)O)cn4c3c2OC(C(C)(C)C)=C4)CC1 [Beispiel 1, 2-tert-Butyl-9-fluor-10-(4-methyl-1-piperazinyl)-7-oxo-7H-pyrido[1,2,3-de][1,4]-benzoxacin-6-carbonsäure]  100 nM
5. CC1=COc2c(N3CCNCC3)c(F)cc3c(=O)c(C(=O)O)cn1c23 [Beispiel 39]  100 nM
